Patent publication US7994140B2, “Classes of compounds that interact with GPCRs” (Alchemia Limited, priority 2002, dated 2011)

Experiments:
MC4 = target: T1, MC4 (Homo sapiens, UniProt P32245); assay: GPCR radioligand binding (RLB) assay, melanocortin MC4, [125I]NDP-αMSH; settings: 10 micromolar compound; recombinant human receptor membranes (HEK 293)
T1 construct: purchased Perkin Elmer BioSignal; host or cells: HEK 293
Summary of the method: (§1)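 Competition binding against radioligand ([125I]NDP-αMSH for MC4, [125I]SST-14 for SST5) on membranes of HEK 293 cells carrying the human receptor; buffer and incubation time optimized per receptor. Filtration through 0.5% PEI-treated glass fiber, washing, then scintillation counting.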

SST5 = target: T2, SST5 (Homo sapiens, UniProt P35346); assay: GPCR radioligand binding (RLB) assay, somatostatin SST5, [125I]SST-14; settings: 10 micromolar compound; for SST5 inhibition at 10 micromolar: recombinant human receptor membranes (HEK 293); for SSTS inhibition at 10 micromolar: Example Library 8
T2 construct: purchased Perkin Elmer BioSignal; host or cells: HEK 293
Summary of the method: as §1

T2 sequence (P35346 whole entry): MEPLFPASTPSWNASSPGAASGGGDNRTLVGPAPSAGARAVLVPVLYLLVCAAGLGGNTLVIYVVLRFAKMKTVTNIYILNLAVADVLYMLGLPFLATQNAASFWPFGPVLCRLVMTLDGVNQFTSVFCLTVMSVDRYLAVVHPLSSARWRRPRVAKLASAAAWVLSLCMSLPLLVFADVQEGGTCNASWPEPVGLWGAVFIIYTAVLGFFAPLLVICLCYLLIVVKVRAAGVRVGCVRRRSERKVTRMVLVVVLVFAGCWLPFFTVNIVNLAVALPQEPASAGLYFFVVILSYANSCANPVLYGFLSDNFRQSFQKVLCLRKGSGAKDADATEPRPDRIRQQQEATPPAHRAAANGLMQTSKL
T1 sequence (P32245 whole entry): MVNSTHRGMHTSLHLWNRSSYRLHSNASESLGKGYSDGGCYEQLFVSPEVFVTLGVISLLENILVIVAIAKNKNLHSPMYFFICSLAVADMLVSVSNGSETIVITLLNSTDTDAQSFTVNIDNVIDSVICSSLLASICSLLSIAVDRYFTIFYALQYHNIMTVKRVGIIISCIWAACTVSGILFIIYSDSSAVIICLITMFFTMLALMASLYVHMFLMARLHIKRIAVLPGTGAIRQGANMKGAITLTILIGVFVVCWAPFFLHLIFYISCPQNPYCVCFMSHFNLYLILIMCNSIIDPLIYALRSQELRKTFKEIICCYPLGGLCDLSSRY

| Structure (SMILES) | MC4 inhibition at 10 micromolar (MC4) | SST5 inhibition at 10 micromolar (SST5) | SSTS inhibition at 10 micromolar (SST5) |
| --- | --- | --- | --- |
| CSC1O[C@H](COCc2ccccc2)[C@@H](O)[C@H](OCc2cccc(N)c2)[C@H]1NC(=O)CCC1CNc2ccccc21 (stereo partly drawn) [Compound 320] | + (Indicates inhibition greater than . . . 50%) | + (Indicates inhibition greater than . . . 50%) | – |
| CSC1O[C@H](COCc2ccc(Cl)cc2)[C@@H](O)[C@H](OCc2cccc(N)c2)[C@H]1NC(=O)Cc1c[nH]c2ccccc12 (stereo partly drawn) [Compound 324] | + (Indicates inhibition greater than . . . 50%) | + (Indicates inhibition greater than . . . 50%) | – |
| CSC1OC(COCc2cccc(N)c2)C(O)C(OCc2ccccc2)C1NC(=O)Cc1ccccc1 (stereo not drawn) [Compound 327] | + (Indicates inhibition greater than . . . 50%) | + (Indicates inhibition greater than . . . 50%) | – |
| CSC1OC(COCc2cccc(N)c2)C(O)C(OCc2ccccc2)C1NC(=O)CCC1CNc2ccccc21 (stereo not drawn) [Compound 330] | + (Indicates inhibition greater than . . . 50%) | + (Indicates inhibition greater than . . . 50%) | – |
| CSC1OC(COCc2cccc(N)c2)C(O)C(OCc2ccc(Cl)cc2)C1NC(=O)c1ccccc1 (stereo not drawn) [Compound 331] | + (Indicates inhibition greater than . . . 50%) | + (Indicates inhibition greater than . . . 50%) | – |
| CSC1O[C@H](COCc2cccc(N)c2)[C@@H](O)[C@H](OCc2ccccc2)[C@H]1NC(=O)Cc1c[nH]c2ccccc12 (stereo partly drawn) [Compound 336] | + (Indicates inhibition greater than . . . 50%) | – | + (Indicates inhibition greater than . . . 50%) |
| CSC1O[C@H](COCc2cccc(N)c2)[C@@H](O)[C@H](OCc2ccc(Cl)cc2)[C@H]1NC(=O)c1ccccc1 (stereo partly drawn) [Compound 338] | + (Indicates inhibition greater than . . . 50%) | – | + (Indicates inhibition greater than . . . 50%) |
| CSC1O[C@H](COCc2cccc(N)c2)[C@@H](O)[C@H](OCc2ccc(Cl)cc2)[C@H]1NC(=O)Cc1ccccc1 (stereo partly drawn) [Compound 339] | + (Indicates inhibition greater than . . . 50%) | – | + (Indicates inhibition greater than . . . 50%) |
| CSC1O[C@H](COCc2cccc(N)c2)[C@@H](O)[C@H](OCc2ccc(Cl)cc2)[C@H]1NC(=O)Cc1c[nH]c2ccccc12 (stereo partly drawn) [Compound 341] | + (Indicates inhibition greater than . . . 50%) | – | + (Indicates inhibition greater than . . . 50%) |
